Counter-ions that a name gives are not always drawn.

The values that follow come from US20250084074A1, “SUBSTITUTED HETEROCYCLES AS HSET INHIBITORS” (MERCK PATENT GMBH, priority 2022, published 2025).

Sequence of HSET full length protein (Q9BW19 whole entry): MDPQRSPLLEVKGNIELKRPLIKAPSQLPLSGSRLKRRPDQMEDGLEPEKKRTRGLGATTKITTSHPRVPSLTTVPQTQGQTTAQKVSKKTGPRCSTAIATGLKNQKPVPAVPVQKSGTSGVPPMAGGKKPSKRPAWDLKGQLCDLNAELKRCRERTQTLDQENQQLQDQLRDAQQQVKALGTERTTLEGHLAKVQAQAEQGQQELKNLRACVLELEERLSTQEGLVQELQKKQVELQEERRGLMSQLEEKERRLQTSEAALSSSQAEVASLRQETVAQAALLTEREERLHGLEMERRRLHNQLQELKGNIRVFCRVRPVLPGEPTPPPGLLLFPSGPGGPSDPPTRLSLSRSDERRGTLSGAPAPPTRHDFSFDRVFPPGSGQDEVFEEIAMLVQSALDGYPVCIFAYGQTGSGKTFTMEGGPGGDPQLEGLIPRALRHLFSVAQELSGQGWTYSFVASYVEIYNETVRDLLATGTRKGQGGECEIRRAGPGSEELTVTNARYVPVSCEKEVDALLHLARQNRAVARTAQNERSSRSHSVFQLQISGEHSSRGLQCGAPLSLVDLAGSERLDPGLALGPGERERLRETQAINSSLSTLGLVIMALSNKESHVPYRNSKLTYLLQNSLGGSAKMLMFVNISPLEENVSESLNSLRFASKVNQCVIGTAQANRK

In the experiment the target is HSET full length protein (Homo sapiens (Human), UniProt Q9BW19). As to the kind of experiment: HSET ADP-Glo Assay S - 3 μM ATP. It is filed as biochemical. As to conditions: 5 nM HSET, 70 μg/mL microtubule, 80 min at rt, read-out: COMBINED HSET ADP GLO IC50. The method, boiled down:
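ADP-Glo luminescence read-out: ATPase reaction at 3 μM ATP, 80 min at room temperature, after a 10 min compound preincubation. Enzyme was full-length human HSET at 5 nM, stimulated by 70 μg/mL paclitaxel-stabilised bovine microtubules in HEPES pH 6.8 buffer with MgCl2, EGTA, Triton X-100 and DTT.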
Regarding `CCCOC(=O)c1sc(NC(=O)C[C@H](CCN(C)C)NC(=O)c2cccc(-c3noc(C)n3)c2)nc1C` [Example 162, Propyl (S)-2-(5-(dimethylamino)-3-(3-(5-methyl-1,2,4-oxadiazol-3-yl)benzamido)pentanamido)-4-methylthiazole-5-carboxylate], the IC50 stood at 558 nM.

Take `CCCOC(=O)c1sc(NC(=O)C[C@H](CCCN)Nc2nccc3ccc(-c4noc(C)n4)cc23)nc1C` [Example 163, Propyl (S)-2-(6-amino-3-((7-(5-methyl-1,2,4-oxadiazol-3-yl)isoquinolin-1-yl)amino)hexanamido)-4-methylthiazole-5-carboxylate]: the IC50 worked out at 13 nM.

As for `Cc1nc(-c2ccc3ccnc(N[C@@H](CCCN)CC(=O)Nc4nc(C)c(C(C)(C)C)s4)c3c2)no1` [Example 164, (S)-6-amino-N-(5-(tert-butyl)-4-methylthiazol-2-yl)-3-((7-(5-methyl-1,2,4-oxadiazol-3-yl)isoquinolin-1-yl)amino)hexanamide formate], the IC50 amounted to 116 nM.

As for `CNCCC[C@@H](CC(=O)Nc1nc(C)c(C(=O)OC2CCCC2)s1)Nc1nccc2ccc(-c3noc(C)n3)cc12` [Example 165, Cyclopentyl (S)-4-methyl-2-(3-((7-(5-methyl-1,2,4-oxadiazol-3-yl)isoquinolin-1-yl)amino)-6-(methylamino)hexanamido)thiazole-5-carboxylate], the IC50 is 23 nM.

On to `CNCCC[C@@H](CC(=O)Nc1nc(C)c(C(=O)OC(CF)CF)s1)Nc1nccc2ccc(-c3noc(C)n3)cc12` [Example 166, 1,3-Difluoropropan-2-yl (S)-4-methyl-2-(3-((7-(5-methyl-1,2,4-oxadiazol-3-yl)isoquinolin-1-yl)amino)-6-(methylamino)hexanamido)thiazole-5-carboxylate], for which the IC50 is 11 nM.

For the molecule `CNCCC[C@@H](CC(=O)Nc1nc(C)c(C(=O)OC(C)C)s1)Nc1nccc2ccc(-c3noc(C)n3)cc12` [Example 167, Isopropyl (S)-4-methyl-2-(3-((7-(5-methyl-1,2,4-oxadiazol-3-yl)isoquinolin-1-yl)amino)-6-(methylamino)hexanamido)thiazole-5-carboxylate], the half-inhibitory concentration (IC50) turned out to be 10 nM.

For the molecule `CNCCC[C@@H](CC(=O)Nc1nc(C)c(C(=O)OC(C)(C)C)s1)Nc1nccc2ccc(-c3noc(C)n3)cc12` [Example 168, tert-Butyl (S)-4-methyl-2-(3-((7-(5-methyl-1,2,4-oxadiazol-3-yl)isoquinolin-1-yl)amino)-6-(methylamino)hexanamido)thiazole-5-carboxylate], the IC50 is 3 nM.

In the case of `CNCCC[C@@H](CC(=O)Nc1nc(C)c(C(=O)O)s1)Nc1nccc2ccc(-c3noc(C)n3)cc12` [Example 169, (S)-4-methyl-2-(3-((7-(5-methyl-1,2,4-oxadiazol-3-yl)isoquinolin-1-yl)amino)-6-(methylamino)hexanamido)thiazole-5-carboxylic acid], the IC50 is 265 nM.

For `CNCCC[C@@H](CC(=O)Nc1nc(C)c(C(=O)OC2CCC(F)(F)C2)s1)Nc1nccc2ccc(-c3noc(C)n3)cc12` (stereo partly drawn) [Example 170, 3,3-Difluorocyclopentyl 4-methyl-2-((S)-3-((7-(5-methyl-1,2,4-oxadiazol-3-yl)isoquinolin-1-yl)amino)-6-(methylamino)hexanamido)thiazole-5-carboxylate], the IC50 came to 4 nM.

Take `CNCCC[C@@H](CC(=O)Nc1nc(C)c(C(C)(C)C)s1)Nc1nccc2ccc(-c3noc(C)n3)cc12` [Example 171, (S)-N-(5-(tert-butyl)-4-methylthiazol-2-yl)-3-((7-(5-methyl-1,2,4-oxadiazol-3-yl)isoquinolin-1-yl)amino)-6-(methylamino)hexanamide]: the IC50 amounted to 149 nM.

Regarding `CCCOC(=O)c1sc(NC(=O)C[C@H](CCCNC)Nc2nccc3ccc(-c4noc(C)n4)cc23)nc1C` [Example 172, Propyl (S)-4-methyl-2-(3-((7-(5-methyl-1,2,4-oxadiazol-3-yl)isoquinolin-1-yl)amino)-6-(methylamino)hexanamido)thiazole-5-carboxylate], the IC50 came to 6 nM.

Consider `CCCOC(=O)c1sc(NC(=O)[C@H](N)CNC(=O)c2cccc(-c3noc(C)n3)c2)nc1C` [Example 173, Propyl (R)-2-(2-amino-3-(3-(5-methyl-1,2,4-oxadiazol-3-yl)benzamido)propanamido)-4-methylthiazole-5-carboxylate formate], for which the IC50 was found to be 63 nM.

As to `CCCOC(=O)c1sc(NC(=O)[C@@H](N)CNc2nccc3ccc(-c4noc(C)n4)cc23)nc1C` [Example 174, Propyl (S)-2-(2-amino-3-((7-(5-methyl-1,2,4-oxadiazol-3-yl)isoquinolin-1-yl)amino)propanamido)-4-methylthiazole-5-carboxylate], the half-inhibitory concentration (IC50) worked out at 8 nM.

As for `CCCOC(=O)c1sc(NC(=O)[C@H](CNC(=O)c2cccc(-c3noc(C)n3)c2)N(C)C)nc1C` [Example 175, Propyl (S)-2-(2-(dimethylamino)-3-(3-(5-methyl-1,2,4-oxadiazol-3-yl)benzamido)propanamido)-4-methylthiazole-5-carboxylate formate], the IC50 worked out at 335 nM.

With `CCCOC(=O)c1sc(NC(=O)[C@H](O)CNc2nccc3ccc(-c4noc(C)n4)cc23)nc1C` [Example 176, Propyl (R)-2-(2-hydroxy-3-((7-(5-methyl-1,2,4-oxadiazol-3-yl)isoquinolin-1-yl)amino)propanamido)-4-methylthiazole-5-carboxylate], the IC50 came out at 1 nM.

On to `Cc1nc(-c2ccc3ccnc(NC[C@@H](O)C(=O)Nc4nc(C)c(C(=O)OC(C)(C)C)s4)c3c2)no1` [Example 177, tert-Butyl (R)-2-(2-hydroxy-3-((7-(5-methyl-1,2,4-oxadiazol-3-yl)isoquinolin-1-yl)amino)propanamido)-4-methylthiazole-5-carboxylate], for which the IC50 was found to be 2 nM.

As to `CCCOC(=O)c1sc(NC(=O)[C@@H](O)CNc2nccc3ccc(-c4noc(C)n4)cc23)nc1C` [Example 178, Propyl (S)-2-(2-hydroxy-3-((7-(5-methyl-1,2,4-oxadiazol-3-yl)isoquinolin-1-yl)amino)propanamido)-4-methylthiazole-5-carboxylate], the IC50 came out at 2 nM.

On to `Cc1nc(-c2ccc3ccnc(NC[C@H](O)C(=O)Nc4nc(C)c(CC(C)C)s4)c3c2)no1` [Example 179, (S)-2-hydroxy-N-(5-isobutyl-4-methylthiazol-2-yl)-3-((7-(5-methyl-1,2,4-oxadiazol-3-yl)isoquinolin-1-yl)amino)propenamide], for which the IC50 turned out to be 43 nM.

Consider `Cc1nc(-c2ccc3ccnc(NC[C@H](O)C(=O)Nc4nc(C)c(C(=O)OC(C)(C)C)s4)c3c2)no1` [Example 180, tert-Butyl (S)-2-(2-hydroxy-3-((7-(5-methyl-1,2,4-oxadiazol-3-yl)isoquinolin-1-yl)amino)propanamido)-4-methylthiazole-5-carboxylate], for which the half-inhibitory concentration (IC50) was found to be 2 nM.

As to `Cc1nc(NC(=O)[C@@H](O)CNc2nccc3ccc(-c4cnn(C)c4)cc23)sc1C(=O)OC(C)(C)C` [Example 181, tert-Butyl (S)-2-(2-hydroxy-3-((7-(1-methyl-1 H-pyrazol-4-yl)isoquinolin-1-yl)amino)propanamido)-4-methylthiazole-5-carboxylate], the IC50 turned out to be 14 nM.

Turning to `CCCc1nc(-c2cc(NC(=O)[C@@H](O)CNc3nccc4ccc(-c5noc(C)n5)cc34)nn2C)no1` [Example 182, (S)-2-hydroxy-3-((7-(5-methyl-1,2,4-oxadiazol-3-yl)isoquinolin-1-yl)amino)-N-(1-methyl-5-(5-propyl-1,2,4-oxadiazol-3-yl)-1 H-pyrazol-3-yl)propenamide], the IC50 turned out to be 57 nM.

For the molecule `CCCc1nc(-c2cc(NC(=O)[C@@H](O)CNc3nccc4ccc(C)cc34)nn2C)no1` [Example 183, (S)-2-hydroxy-N-(1-methyl-5-(5-propyl-1,2,4-oxadiazol-3-yl)-1 H-pyrazol-3-yl)-3-((7-methylisoquinolin-1-yl)amino)propanamide], the IC50 is 17300 nM.

As for `Cc1ccc2ccnc(NC[C@@H](O)C(=O)Nc3nc(C)c(C(=O)OC(C)(C)C)s3)c2c1` [Example 184, tert-Butyl (R)-2-(2-hydroxy-3-((7-methylisoquinolin-1-yl)amino)propanamido)-4-methylthiazole-5-carboxylate], the IC50 amounted to 34 nM.

`Cc1ccc2ccnc(NC[C@H](O)C(=O)Nc3nc(C)c(C(=O)OC(C)(C)C)s3)c2c1` [Example 185, tert-Butyl (S)-2-(2-hydroxy-3-((7-methylisoquinolin-1-yl)amino)propanamido)-4-methylthiazole-5-carboxylate]: the 50% inhibitory concentration (IC50) was found to be 20 nM.

For `CCCOC(=O)c1sc(NC(=O)[C@H](CNc2nccc3ccc(-c4noc(C)n4)cc23)OC)nc1C` [Example 186, Propyl (S)-2-(2-methoxy-3-((7-(5-methyl-1,2,4-oxadiazol-3-yl)isoquinolin-1-yl)amino)propanamido)-4-methylthiazole-5-carboxylate], the IC50 was 30 nM.

In the case of `Cc1nc(-c2ccc3ccnc(NC[C@H](O)C(=O)Nc4nc(C)c(C(C)(C)C)s4)c3c2)no1` [Example 187, (S)-N-(5-(tert-butyl)-4-methylthiazol-2-yl)-2-hydroxy-3-((7-(5-methyl-1,2,4-oxadiazol-3-yl)isoquinolin-1-yl)amino)propenamide], the IC50 amounted to 52 nM.

As to `CCCCCc1cc(NC(=O)[C@@H](O)CNc2nccc3ccc(-c4noc(C)n4)cc23)nn1C` [Example 188, (S)-2-hydroxy-3-((7-(5-methyl-1,2,4-oxadiazol-3-yl)isoquinolin-1-yl)amino)-N-(1-methyl-5-pentyl-1 H-pyrazol-3-yl)propenamide], the IC50 is 270 nM.

Regarding `CCCCCc1cc(NC(=O)[C@H](O)CNc2nccc3ccc(-c4noc(C)n4)cc23)nn1C` [Example 189, (R)-2-hydroxy-3-((7-(5-methyl-1,2,4-oxadiazol-3-yl)isoquinolin-1-yl)amino)-N-(1-methyl-5-pentyl-1 H-pyrazol-3-yl)propenamide], the IC50 worked out at 616 nM.
